Target: mouse Trpa1 (Mus musculus, UniProt Q8BLA8)
Experiment: Ca2+ influx assay in HEK-293T cells transfected with mouse TRPA1
Type: cell-based

Chain of mouse Trpa1 (Q8BLA8 whole entry): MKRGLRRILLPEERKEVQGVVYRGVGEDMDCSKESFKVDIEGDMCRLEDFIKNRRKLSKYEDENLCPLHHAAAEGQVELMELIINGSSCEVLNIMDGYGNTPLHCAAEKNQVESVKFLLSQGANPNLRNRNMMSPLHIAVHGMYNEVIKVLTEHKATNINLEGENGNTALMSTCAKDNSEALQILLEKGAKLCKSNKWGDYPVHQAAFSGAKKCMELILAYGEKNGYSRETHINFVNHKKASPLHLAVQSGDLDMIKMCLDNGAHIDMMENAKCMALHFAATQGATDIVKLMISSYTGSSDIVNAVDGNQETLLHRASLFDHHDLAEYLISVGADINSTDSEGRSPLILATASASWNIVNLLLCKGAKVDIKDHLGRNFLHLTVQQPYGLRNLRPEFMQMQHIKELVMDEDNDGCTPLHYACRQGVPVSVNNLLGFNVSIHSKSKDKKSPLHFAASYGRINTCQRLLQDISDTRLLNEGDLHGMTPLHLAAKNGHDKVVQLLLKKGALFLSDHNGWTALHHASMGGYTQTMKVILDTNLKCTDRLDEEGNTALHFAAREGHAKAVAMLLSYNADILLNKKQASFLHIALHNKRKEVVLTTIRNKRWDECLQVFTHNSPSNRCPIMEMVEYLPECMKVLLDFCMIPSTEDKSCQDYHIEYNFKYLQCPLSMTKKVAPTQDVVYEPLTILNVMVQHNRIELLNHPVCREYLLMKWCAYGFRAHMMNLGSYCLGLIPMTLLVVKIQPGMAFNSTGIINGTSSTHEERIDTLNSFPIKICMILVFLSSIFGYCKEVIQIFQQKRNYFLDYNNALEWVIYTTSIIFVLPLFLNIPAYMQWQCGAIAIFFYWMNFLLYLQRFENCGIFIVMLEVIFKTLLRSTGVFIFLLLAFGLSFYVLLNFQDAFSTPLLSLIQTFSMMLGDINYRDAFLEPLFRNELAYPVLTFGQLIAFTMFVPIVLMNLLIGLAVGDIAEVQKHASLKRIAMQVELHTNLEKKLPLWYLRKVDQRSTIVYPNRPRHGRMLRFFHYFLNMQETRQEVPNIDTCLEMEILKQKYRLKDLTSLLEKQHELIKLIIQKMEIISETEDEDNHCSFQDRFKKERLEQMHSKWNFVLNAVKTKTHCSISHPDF

SMILES	Ca2+ influx assay in HEK-293T cells transfected with mouse TRPA1
O=Cc1c[nH]c2ccccc12 [IAld, Indole-3-carboxaldehyde]	Both indole and IAld also activated mouse Trpa1, but in a less potent manner
c1ccc2[nH]ccc2c1 [Indole]	Both indole and IAld also activated mouse Trpa1, but in a less potent manner

— article PMC7997396 (Cell host & microbe, 2020)
